In patent US9650395B2, “Antibacterial compounds and methods for use” (PTC Therapeutics, Inc., priority 2011, dated 2017):
≈ marks a conversion by molar mass, not a printed value.

What was measured:
[1] = system: super sensitive Gram-negative Escherichia coli (E. coli) BAS849; assay: Antibacterial activity, microbroth dilution MIC, E. coli BAS849; assay type: cell-based; conditions: Escherichia coli; E. coli BAS849, microbroth dilution; read-out: MIC, BAS849
[2] = system: quinolone resistant E. coli LZ3111; assay: Antibacterial activity, MIC, quinolone resistant E. coli LZ3111; assay type: cell-based, Escherichia coli; conditions: Escherichia coli, read-out: MIC, LZ3111
Text: The antibacterial activity from a microbroth dilution method may be presented as the minimum inhibitory concentration (MIC in […]). The MIC value is the lowest concentration of a drug which prevents macroscopically visible bacterial growth under test conditions.
Mutations in these regions are known to confer a high level resistance to the quinolone class of antibiotics.

[3] = system: control Gram-negative E. coli 25922 strain; assay: Antibacterial activity, microbroth dilution MIC, E. coli 25922; assay type: cell-based, Escherichia coli; conditions: Escherichia coli; E. coli 25922, microbroth dilution; read-out: MIC, 25922
[4] = system: Gram-positive Staphylococcus aureus (S. aureus) 29213; assay: Antibacterial activity, microbroth dilution MIC, S. aureus 29213; assay type: cell-based; conditions: Staphylococcus aureus; S. aureus 29213, microbroth dilution; read-out: MIC, 29213

Work on `CCc1c(-c2ccc(N3C[C@H]4C[C@@H](N)C[C@H]4C3)cc2)[nH]c(=O)c(C(=O)O)c1O` [Cpd 248, 6-{4-[(3aR,5r,6aS)-5-aminohexahydrocyclopenta[c]pyrrol-2(1H)-yl]phenyl}-5-ethyl-4-hydroxy-2-oxo-1,2-dihydropyridine-3-carboxylic acid] yielded an MIC [1] of 1 to 3.5 µg/mL (≈ 2.61 to 9.13 µM), an MIC [2] of 12.5 to 150 µg/mL (≈ 32.6 to 391 µM) and an MIC [3] of 12.5 to 150 µg/mL (≈ 32.6 to 391 µM). For the same compound, the MIC [4] was 12.5 to 150 µg/mL (≈ 32.6 to 391 µM).
`CCc1c(-c2ccc(N3C[C@H](CN(Cc4ccccc4)Cc4ccccc4)[C@@H](C)C3)cc2)[nH]c(=O)c(C(=O)O)c1O` [Cpd 249, 6-(4-{(3S,4R)-3-[(dibenzylamino)methyl]-4-methylpyrrolidin-1-yl}phenyl)-5-ethyl-4-hydroxy-2-oxo-1,2-dihydropyridine-3-carboxylic acid] showed an MIC [1] of 12.5 to 150 µg/mL (≈ 22.7 to 272 µM), an MIC [2] of 12.5 to 150 µg/mL (≈ 22.7 to 272 µM) and an MIC [3] of 12.5 to 150 µg/mL (≈ 22.7 to 272 µM). For the same compound, the MIC [4] was 12.5 to 150 µg/mL (≈ 22.7 to 272 µM).
`CCc1c(-c2ccc(N3C[C@H]4C[C@@H](NCc5ccccc5)C[C@H]4C3)cc2)[nH]c(=O)c(C(=O)O)c1O` [Cpd 250, 6-{4-[(3aR,5r,6aS)-5-(benzylamino)hexahydrocyclopenta[c]pyrrol-2(1H)-yl]phenyl}-5-ethyl-4-hydroxy-2-oxo-1,2-dihydropyridine-3-carboxylic acid] was tested, and the MIC [1] was 3.5 to 12.5 µg/mL (≈ 7.39 to 26.4 µM), the MIC [2] was 12.5 to 150 µg/mL (≈ 26.4 to 317 µM) and the MIC [3] was 12.5 to 150 µg/mL (≈ 26.4 to 317 µM). It also gave an MIC [4] of 12.5 to 150 µg/mL (≈ 26.4 to 317 µM).
With `CCc1c(-c2ccc(N3C[C@H]4C[C@@H](N(Cc5ccccc5)Cc5ccccc5)C[C@H]4C3)cc2)[nH]c(=O)c(C(=O)O)c1O` [Cpd 251, 6-{4-[(3aR,5r,6aS)-5-(dibenzylamino)hexahydrocyclopenta[c]pyrrol-2(1H)-yl]phenyl}-5-ethyl-4-hydroxy-2-oxo-1,2-dihydropyridine-3-carboxylic acid] the MIC [1] was 12.5 to 150 µg/mL (≈ 22.2 to 266 µM), the MIC [2] was 12.5 to 150 µg/mL (≈ 22.2 to 266 µM) and the MIC [3] was 12.5 to 150 µg/mL (≈ 22.2 to 266 µM). The MIC [4] was 12.5 to 150 µg/mL (≈ 22.2 to 266 µM).
With `CCc1c(-c2ccc(N3CC4CCCN(C(=O)OC(C)(C)C)C4C3)cc2)[nH]c(=O)c(C(=O)O)c1O` (stereo not shown) [Cpd 253, 6-{4-[1-(tert-butoxycarbonyl)octahydro-6H-pyrrolo[3,4-b]pyridin-6-yl]phenyl}-5-ethyl-4-hydroxy-2-oxo-1,2-dihydropyridine-3-carboxylic acid] the MIC [1] was < 1 µg/mL, the MIC [2] was 12.5 to 150 µg/mL (≈ 25.8 to 310 µM) and the MIC [3] was 12.5 to 150 µg/mL (≈ 25.8 to 310 µM). For the same compound, the MIC [4] was 3.5 to 12.5 µg/mL (≈ 7.24 to 25.8 µM).
`CCc1c(-c2ccc(N3CCC(CN(C)Cc4ccccc4)C3)cc2)[nH]c(=O)c(C(=O)O)c1O` (stereo not shown) [Cpd 255, 6-[4-(3-{[benzyl(methyl)amino]methyl}pyrrolidin-1-yl)phenyl]-5-ethyl-4-hydroxy-2-oxo-1,2-dihydropyridine-3-carboxylic acid] was tested, and the MIC [1] was 3.5 to 12.5 µg/mL (≈ 7.58 to 27.1 µM), the MIC [2] was 12.5 to 150 µg/mL (≈ 27.1 to 325 µM) and the MIC [3] was 12.5 to 150 µg/mL (≈ 27.1 to 325 µM). For the same compound, the MIC [4] was 3.5 to 12.5 µg/mL (≈ 7.58 to 27.1 µM).
Compound `CCc1c(-c2ccc(N3C[C@H]4CNC[C@H]4C3)cc2)[nH]c(=O)c(C(=O)O)c1O.Cl` [Cpd 274, 5-ethyl-6-{4-[(3aR,6aS)-hexahydropyrrolo[3,4-c]pyrrol-2(1H)-yl]phenyl}-4-hydroxy-2-oxo-1,2-dihydropyridine-3-carboxylic acid hydrochloride] has an MIC [1] of 1 to 3.5 µg/mL, an MIC [2] of 12.5 to 150 µg/mL and an MIC [3] of 12.5 to 150 µg/mL. The MIC [4] was 12.5 to 150 µg/mL.
With `CCc1c(-c2ccc(N3CCC4(CCNCC4)C3)cc2)[nH]c(=O)c(C(=O)O)c1O.Cl` [Cpd 278, 6-[4-(2,8-diazaspiro[4.5]dec-2-yl)phenyl]-5-ethyl-4-hydroxy-2-oxo-1,2-dihydropyridine-3-carboxylic acid hydrochloride] the MIC [1] was < 1 µg/mL, the MIC [2] was 12.5 to 150 µg/mL and the MIC [3] was 3.5 to 12.5 µg/mL. It also gave an MIC [4] of 3.5 to 12.5 µg/mL.
In the case of `CCc1c(-c2ccc(N3CCC(O)CC3)cc2)[nH]c(=O)c(C(=O)O)c1O` [Cpd 280, 5-ethyl-4-hydroxy-6-[4-(4-hydroxypiperidin-1-yl)phenyl]-2-oxo-1,2-dihydropyridine-3-carboxylic acid], the MIC [1] was < 1 µg/mL, the MIC [2] was 12.5 to 150 µg/mL (≈ 34.9 to 419 µM) and the MIC [3] was 12.5 to 150 µg/mL (≈ 34.9 to 419 µM). For the same compound, the MIC [4] was 12.5 to 150 µg/mL (≈ 34.9 to 419 µM).
In the case of `CCc1c(-c2ccc(N3CCC(OCc4ccccc4)CC3)cc2)[nH]c(=O)c(C(=O)O)c1O` [Cpd 281, 6-{4-[4-(benzyloxy)piperidin-1-yl]phenyl}-5-ethyl-4-hydroxy-2-oxo-1,2-dihydropyridine-3-carboxylic acid], the MIC [1] was 3.5 to 12.5 µg/mL (≈ 7.8 to 27.9 µM), the MIC [2] was 12.5 to 150 µg/mL (≈ 27.9 to 334 µM) and the MIC [3] was 12.5 to 150 µg/mL (≈ 27.9 to 334 µM). The MIC [4] was 12.5 to 150 µg/mL (≈ 27.9 to 334 µM).
